Results: ChEMBL document CHEMBL3045943, “Novel N-aryl(alkaryl)-2-[(3-R-2-oxo-2H-[1,2,4]triazino[2,3-c]quinazoline-6-yl)thio]acetamides: synthesis, cytotoxicity, anticancer activity, COMPARE analysis and docking” (2013)

Assays:
Type in all cases: functional
RXF 393 = test: Cytotoxicity against Homo sapiens (human) RXF393 cells after 48 hr by SRB assay; conditions: RXF 393, 48 h; for TGI: read-out: pTGI (converted)
MDA-MB-435 = test: Cytotoxicity against Homo sapiens (human) MDA-MB-435 cells assessed as cell growth at 10 uM after 48 hr by SRB assay relative to control; conditions: MDA-MB-435, 48 h, read-out: Activity
HL-60(TB) = test: Cytotoxicity against Homo sapiens (human) HL-60(TB) cells assessed as cell growth at 10 uM after 48 hr by SRB assay relative to control; conditions: HL-60, 48 h, read-out: Activity
ACHN = test: Cytotoxicity against Homo sapiens (human) ACHN cells after 48 hr by SRB assay
SF-268 = test: Cytotoxicity against Homo sapiens (human) SF268 cells assessed as cell growth at 10 uM after 48 hr by SRB assay relative to control; conditions: SF-268, 48 h, read-out: Activity
786-0 [1] = test: Cytotoxicity against Homo sapiens (human) 786-0 cells assessed as cell growth at 10 uM after 48 hr by SRB assay relative to control; conditions: 786-0, 48 h, read-out: Activity
HOP-62 = test: Cytotoxicity against Homo sapiens (human) HOP62 cells after 48 hr by SRB assay; conditions: HOP-62, 48 h; for TGI: read-out: pTGI (converted)
K562 = test: Cytotoxicity against Homo sapiens (human) K562 cells assessed as cell growth at 10 uM after 48 hr by SRB assay relative to control; conditions: K562, 48 h, read-out: Activity
KM12 = test: Cytotoxicity against Homo sapiens (human) KM12 cells assessed as cell growth at 10 uM after 48 hr by SRB assay relative to control; conditions: KM12, 48 h, read-out: Activity
SW-620 = test: Cytotoxicity against Homo sapiens (human) SW620 cells assessed as cell growth at 10 uM after 48 hr by SRB assay relative to control; conditions: SW-620, 48 h, read-out: Activity
[2] = tested on: Photobacterium leiognathi; test: Growth inhibition of Photobacterium leiognathi Sh1 assessed as bio-luminescence at 0.025 mg/ml after 10 min by acute action test relative to control; design: scale not given: the % may be the effect or the level left
SF-295 = test: Cytotoxicity against Homo sapiens (human) SF295 cells assessed as cell growth at 10 uM after 48 hr by SRB assay relative to control; conditions: SF-295, 48 h, read-out: Activity
DU-145 = test: Cytotoxicity against Homo sapiens (human) DU145 cells assessed as cell growth at 10 uM after 48 hr by SRB assay relative to control; conditions: DU-145, 48 h, read-out: Activity
NCI-H460 = test: Cytotoxicity against Homo sapiens (human) NCI-H460 cells assessed as cell growth at 10 uM after 48 hr by SRB assay relative to control; conditions: NCI-H460, 48 h, read-out: Activity
SR = test: Cytotoxicity against Homo sapiens (human) SR cells assessed as cell growth at 10 uM after 48 hr by SRB assay relative to control; conditions: read-out: Activity
[3] = tested on: Photobacterium leiognathi; test: Growth inhibition of Photobacterium leiognathi Sh1 assessed as bio-luminescence at 0.25 mg/ml after 10 min by acute action test relative to control; design: scale not given: the % may be the effect or the level left
[4] = tested on: Photobacterium leiognathi; test: Growth inhibition of Photobacterium leiognathi Sh1 assessed as bio-luminescence at 0.1 mg/ml after 10 min by acute action test relative to control; design: scale not given: the % may be the effect or the level left
A549 = test: Cytotoxicity against Homo sapiens (human) A549 cells assessed as cell growth at 10 uM after 48 hr by SRB assay relative to control; conditions: A549, 48 h, read-out: Activity
IGROV-1 = test: Cytotoxicity against Homo sapiens (human) IGROV1 cells assessed as cell growth at 10 uM after 48 hr by SRB assay relative to control; conditions: IGROV-1, 48 h, read-out: Activity
HCT-116 = test: Cytotoxicity against Homo sapiens (human) HCT116 cells assessed as cell growth at 10 uM after 48 hr by SRB assay relative to control; conditions: HCT-116, 48 h, read-out: Activity
[5] = tested on: Photobacterium leiognathi; test: Growth inhibition of Photobacterium leiognathi Sh1 assessed as bio-luminescence at 0.1 mg/ml after 16 to 18 hr by chronic action test relative to control; design: scale not given: the % may be the effect or the level left
EKVX = test: Cytotoxicity against Homo sapiens (human) EKVX cells assessed as cell growth at 10 uM after 48 hr by SRB assay relative to control; conditions: read-out: Activity
OVCAR-3 = test: Cytotoxicity against Homo sapiens (human) OVCAR3 cells assessed as cell growth at 10 uM after 48 hr by SRB assay relative to control; conditions: OVCAR-3, 48 h, read-out: Activity
Hs-578T = test: Cytotoxicity against Homo sapiens (human) Hs 578T cells after 48 hr by SRB assay; conditions: for TGI: read-out: pTGI (converted)
CAKI-1 = test: Cytotoxicity against Homo sapiens (human) Caki1 cells assessed as cell growth at 10 uM after 48 hr by SRB assay relative to control; conditions: CAKI-1, 48 h, read-out: Activity
SNB-75 = test: Cytotoxicity against Homo sapiens (human) SNB75 cells after 48 hr by SRB assay; conditions: SNB-75, 48 h; for TGI: read-out: pTGI (converted)
LOX IMVI = test: Cytotoxicity against Homo sapiens (human) LOXIMVI cells assessed as cell growth at 10 uM after 48 hr by SRB assay relative to control; conditions: read-out: Activity
[6] = tested on: Photobacterium leiognathi; test: Growth inhibition of Photobacterium leiognathi Sh1 assessed as bio-luminescence at 0.25 mg/ml after 16 to 18 hr by chronic action test relative to control; design: scale not given: the % may be the effect or the level left
786-0 [7] = test: Cytotoxicity against Homo sapiens (human) 786-0 cells after 48 hr by SRB assay; conditions: 786-0, 48 h
MOLT-4 = test: Cytotoxicity against Homo sapiens (human) MOLT4 cells assessed as cell growth at 10 uM after 48 hr by SRB assay relative to control; conditions: MOLT-4, 48 h, read-out: Activity
[8] = tested on: Photobacterium leiognathi; test: Growth inhibition of Photobacterium leiognathi Sh1 assessed as bio-luminescence at 0.025 mg/ml after 16 to 18 hr by chronic action test relative to control; design: scale not given: the % may be the effect or the level left
Malme-3M = test: Cytotoxicity against Homo sapiens (human) MALME-3M cells after 48 hr by SRB assay
UACC-62 = test: Cytotoxicity against Homo sapiens (human) UACC62 cells assessed as cell growth at 10 uM after 48 hr by SRB assay relative to control; conditions: UACC-62, 48 h, read-out: Activity
[9] = read-out: pLC50 (the source's name) (converted)

Q: How did the GI50 (RXF 393) turn out when `COc1ccccc1CNC(=O)CSc1nc2ccccc2c2nc(=O)c(-c3ccccc3)nn12` was run?
A: 1.78 µM

Q: And the LC50 (RXF 393)?
A: > 100 µM

Q: And the TGI (RXF 393)?
A: > 100 µM

Q: What about the growth at 10 µM (MDA-MB-435) of the same compound?
A: 27.7%

Q: What about the growth at 10 µM (HL-60(TB)) of the same compound?
A: 41.9%

Q: And the GI50 (ACHN)?
A: 1.86 µM

Q: And the CC50 (ACHN; [9])?
A: > 100 µM

Q: And the TGI (ACHN; read-out: pTGI)?
A: > 100 µM

Q: And the growth at 10 µM (SF-268)?
A: 43.5%

Q: And the growth at 10 µM (786-0 [1])?
A: 35.3%

Q: And the GI50 (HOP-62)?
A: 2.34 µM

Q: And the LC50 (HOP-62)?
A: 19.5 µM

Q: What about the TGI (HOP-62) of the same compound?
A: 5.5 µM

Q: And the growth at 10 µM (K562)?
A: 26.4%

Q: What about the growth at 10 µM (KM12) of the same compound?
A: 43.3%

Q: What about the growth at 10 µM (SW-620) of the same compound?
A: 30.2%

Q: What about the Activity [2] of the same compound?
A: 111.5%

Q: And the growth at 10 µM (SF-295)?
A: 18.8%

Q: And the growth at 10 µM (DU-145)?
A: 0.48%

Q: What about the growth at 10 µM (NCI-H460) of the same compound?
A: 8.38%

Q: What about the growth at 10 µM (SR) of the same compound?
A: 42.1%

Q: And the Activity [3]?
A: 122.6%

Q: And the Activity [4]?
A: 99.1%

Q: And the growth at 10 µM (A549)?
A: 39.7%

Q: And the growth at 10 µM (IGROV-1)?
A: 18.8%

Q: What about the growth at 10 µM (HCT-116) of the same compound?
A: 33.1%

Q: What about the Activity [5] of the same compound?
A: 80%

Q: And the growth at 10 µM (EKVX)?
A: 31.4%

Q: And the growth at 10 µM (OVCAR-3)?
A: 21.3%

Q: What about the GI50 (Hs-578T) of the same compound?
A: 3.09 µM

Q: And the LC50 (Hs-578T)?
A: > 100 µM

Q: What about the TGI (Hs-578T) of the same compound?
A: 9.12 µM

Q: What about the growth at 10 µM (CAKI-1) of the same compound?
A: -13.6%

Q: What about the GI50 (SNB-75) of the same compound?
A: 2.24 µM

Q: What about the LC50 (SNB-75) of the same compound?
A: 43.7 µM

Q: And the TGI (SNB-75)?
A: 6.61 µM

Q: And the growth at 10 µM (LOX IMVI)?
A: 27.7%

Q: And the Activity [6]?
A: 73.3%

Q: What about the GI50 (786-0 [7]) of the same compound?
A: 2.24 µM

Q: What about the CC50 (786-0 [7]; [9]) of the same compound?
A: > 100 µM

Q: And the TGI (786-0 [7]; read-out: pTGI)?
A: 5.25 µM

Q: And the growth at 10 µM (MOLT-4)?
A: 52.3%

Q: What about the Activity [8] of the same compound?
A: 150%

Q: Which GI50 (RXF 393) does the source give for `COc1ccc(-c2nn3c(SCC(=O)Nc4ccccc4Cl)nc4ccccc4c3nc2=O)cc1` here?
A: 2.63 µM

Q: And the LC50 (RXF 393)?
A: 39.8 µM

Q: What about the TGI (RXF 393) of the same compound?
A: 7.76 µM

Q: And the growth at 10 µM (MDA-MB-435)?
A: 15.7%

Q: And the growth at 10 µM (HL-60(TB))?
A: 38.6%

Q: And the growth at 10 µM (SF-268)?
A: 53.9%

Q: What about the growth at 10 µM (786-0 [1]) of the same compound?
A: 32.9%

Q: What about the GI50 (HOP-62) of the same compound?
A: 2.88 µM

Q: And the LC50 (HOP-62)?
A: 35.5 µM

Q: And the TGI (HOP-62)?
A: 9.77 µM

Q: What about the growth at 10 µM (K562) of the same compound?
A: 26.9%

Q: And the GI50 (Malme-3M)?
A: 1.86 µM

Q: What about the CC50 (Malme-3M; [9]) of the same compound?
A: > 100 µM

Q: And the TGI (Malme-3M; read-out: pTGI (converted))?
A: 7.94 µM

Q: What about the growth at 10 µM (KM12) of the same compound?
A: 34.8%

Q: What about the growth at 10 µM (SW-620) of the same compound?
A: 13.9%

Q: What about the Activity [2] of the same compound?
A: 83.3%

Q: And the growth at 10 µM (SF-295)?
A: 23.9%

Q: What about the growth at 10 µM (DU-145) of the same compound?
A: -17.9%

Q: And the growth at 10 µM (NCI-H460)?
A: 24.1%

Q: What about the growth at 10 µM (SR) of the same compound?
A: 37%

Q: And the Activity [3]?
A: 75%

Q: What about the growth at 10 µM (UACC-62) of the same compound?
A: 18.1%

Q: What about the Activity [4] of the same compound?
A: 87.5%

Q: And the growth at 10 µM (A549)?
A: -29.6%

Q: What about the growth at 10 µM (IGROV-1) of the same compound?
A: 38.4%

Q: What about the growth at 10 µM (HCT-116) of the same compound?
A: 12.2%

Q: And the Activity [5]?
A: 35.4%

Q: And the growth at 10 µM (EKVX)?
A: 27.2%

Q: What about the growth at 10 µM (OVCAR-3) of the same compound?
A: 7.18%

Q: What about the GI50 (Hs-578T) of the same compound?
A: 1.95 µM

Q: What about the LC50 (Hs-578T) of the same compound?
A: > 100 µM

Q: What about the TGI (Hs-578T) of the same compound?
A: 6.76 µM

Q: And the growth at 10 µM (CAKI-1)?
A: 54.7%

Q: What about the GI50 (SNB-75) of the same compound?
A: 2 µM

Q: What about the LC50 (SNB-75) of the same compound?
A: 25.1 µM

Q: And the TGI (SNB-75)?
A: 6.03 µM

Q: And the growth at 10 µM (LOX IMVI)?
A: 42.1%

Q: What about the Activity [6] of the same compound?
A: 33.3%

Q: And the growth at 10 µM (MOLT-4)?
A: 36.3%

Q: What about the Activity [8] of the same compound?
A: 54.5%
